Results reported in the supplement of paper PMC11061612.

What was measured:
[1] = compound: C[C@@H]1COCCN1C2=NC(=NC(=C2)C3(CC3)[S@](=N)(=O)C)C4=C5C=CNC5=NC=C4 [AZD6738]; conditions: max 10 µM
Procedure, shortened: (§1)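 After 24 hours at 37°C and 5% CO2 in 1536-well plates holding 7.5 μl of DMEM/F12 or RPMI with 10% FBS, cancer cell lines were dosed for 72 hours, with final DMSO typically 0.2%. Viability came from CellTiter-Glo 2.0 luminescence, scaled between the means of blank wells and DMSO wells. A non-linear mixed effects model fitted a two-parameter logistic curve to each dose response to give the single-agent IC50.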

[2] = compound: C[C@@H](Nc1cc(F)cc(F)c1)c1cc(C(=O)N(C)C)cc2c(=O)cc(N3CCOCC3)oc12 [AZD8186]; conditions: max 3 µM
Procedure, shortened: as §1

[3] = compound: CC1=C(C(=CC=C1)Cl)NC(=O)C2=CN=C(S2)NC3=CC(=NC(=N3)C)N4CCN(CC4)CCO [Dasatinib]; conditions: max 2 µM
Procedure, shortened: as §1

[4] = compound: Cc1cc2ncnn2cc1Nc1ncc2c(n1)n(C1CCOCC1)c(=O)n2C [AZD7648]; conditions: max 10 µM
Procedure, shortened: as §1

[5] = compound: Cn1cnc2c(F)c(Nc3ccc(Br)cc3Cl)c(C(=O)NOCCO)cc21 [Selumetinib]; conditions: max 10 µM
Procedure, shortened: as §1

[6] = compound: COc1cccc(OCCCN)c1-c1cc(Nc2cnc(C#N)cn2)n[nH]1 [Prexasertib]; conditions: max 1 µM
Procedure, shortened: as §1

[7] = compound: C1CN(CCC1(C(=O)N[C@@H](CCO)C2=CC=C(C=C2)Cl)N)C3=NC=NC4=C3C=CN4 [Capivasertib]; conditions: max 10 µM
Procedure, shortened: as §1

[8] = compound: CCc1c2c(nc3ccc(O)cc13)-c1cc3c(c(=O)n1C2)COC(=O)[C@]3(O)CC [SN-38]; conditions: max 0.3 µM
Procedure, shortened: as §1

[9] = compound: COc1cc2ncnc(Nc3ccc(F)c(Cl)c3)c2cc1OCCCN1CCOCC1 [Gefitinib]; conditions: max 10 µM
Procedure, shortened: as §1

[10] = compound: CC(=O)Nc1cccc(-n2c(=O)n(C3CC3)c(=O)c3c(Nc4ccc(I)cc4F)n(C)c(=O)c(C)c32)c1 [Trametinib]; conditions: max 1 µM
Procedure, shortened: as §1

[11] = compound: O=C(c1cc(Cc2n[nH]c(=O)c3ccccc23)ccc1F)N1CCN(C(=O)C2CC2)CC1 [Olaparib]
Procedure, shortened: as §1

[12] = compound: CC(C)n1c(=O)n(C)c2cnc3cc(F)c(-c4ccc(OCCCN5CCCCC5)nc4)cc3c21 [AZD1390]; conditions: max 0.3 µM
Procedure, shortened: as §1

[13] = compound: COc1cc(Nc2ncc3c(n2)-c2ccc(Cl)cc2C(c2c(F)cccc2OC)=NC3)ccc1C(=O)O [Alisertib]; conditions: max 10 µM
Procedure, shortened: as §1

[14] = compound: Cc1c2c(nn1C)CSCc1cc(n(C)n1)CSc1cc(c3ccccc3c1)OCCCc1c(C(=O)O)n(C)c3c-2c(Cl)ccc13 [AZD5991]; conditions: max 1 µM
Procedure, shortened: as §1

[15] = compound: CN(CC[C@H](CSC1=CC=CC=C1)NC2=C(C=C(C=C2)S(=O)(=O)NC(=O)C3=CC=C(C=C3)N4CCC(CC4)[C@H](C5=CC=CC=C5C6=CC=C(C=C6)Cl)O)S(=O)(=O)C(F)(F)F)CCO [AZD4320]; conditions: max 1 µM
Procedure, shortened: as §1

[16] = compound: COc1cccc2c1C(=O)c1c(O)c3c(c(O)c1C2=O)C[C@@](O)(C(=O)CO)C[C@@H]3O[C@H]1C[C@H](N)[C@H](O)[C@H](C)O1 [Doxorubicin]; conditions: max 1 µM
Procedure, shortened: as §1

[17] = compound: CCN(CCO)CCCOc1ccc2c(Nc3cc(CC(=O)Nc4cccc(F)c4)[nH]n3)ncnc2c1 [AZD2811]; conditions: max 1 µM
Procedure, shortened: as §1

[18] = compound: Cc1nc(-c2cn3c(n2)-c2ccc(-c4cnn(C(C)(C)C(N)=O)c4)cc2OCC3)n(C(C)C)n1 [Taselisib]; conditions: max 10 µM
Procedure, shortened: as §1

[19] = compound: CS(=O)(=O)CCNCc1ccc(-c2ccc3ncnc(Nc4ccc(OCc5cccc(F)c5)c(Cl)c4)c3c2)o1 [Lapatinib]; conditions: max 10 µM
Procedure, shortened: as §1

[20] = compound: CC(=O)c1c(C)c2cnc(Nc3ccc(N4CCNCC4)cn3)nc2n(C2CCCC2)c1=O [Palbociclib]; conditions: max 10 µM
Procedure, shortened: as §1

[21] = compound: C[C@@H](c1ccc2nccn2c1)n1nnc2ncc(-c3cnn(C)c3)nc21 [Savolitinib]; conditions: max 1 µM
Procedure, shortened: as §1

[22] = compound: CC1=CN2[C@@H](C1)C=NC3=CC(=C(C=C3C2=O)OC)OCCCCCOC4=C(C=C5C(=C4)N=C[C@@H]6CC(=CN6C5=O)C)OC [SG3199]; conditions: max 0.001 µM
Procedure, shortened: as §1

[23] = compound: CN(C)CCCOc1ccc(-c2ccc3ncc4c(c3c2)n(C2CCOCC2)c(=O)n4C)cn1 [AZD0156]; conditions: max 3 µM
Procedure, shortened: as §1

[24] = compound: CC1(C)CCC(CN2CCN(c3ccc(C(=O)NS(=O)(=O)c4ccc(NCC5CCOCC5)c([N+](=O)[O-])c4)c(Oc4cnc5[nH]ccc5c4)c3)CC2)=C(c2ccc(Cl)cc2)C1 [Venetoclax]; conditions: max 1 µM
Procedure, shortened: as §1

[25] = compound: C=CCn1c(=O)c2cnc(Nc3ccc(N4CCN(C)CC4)cc3)nc2n1-c1cccc(C(C)(C)O)n1 [AZD1775]; conditions: max 3 µM
Procedure, shortened: as §1

[26] = compound: C[C@@H](Oc1cc(-c2cnn(C3CCNCC3)c2)cnc1N)c1c(Cl)ccc(F)c1Cl [Crizotinib]; conditions: max 10 µM
Procedure, shortened: as §1

[27] = compound: COc1nnc2ccc(N3CCC(c4ccc(OCCN5CCN(C)C(=O)[C@H]5C)cc4)CC3)nn12 [AZD5153]; conditions: max 1 µM
Procedure, shortened: as §1

| Cell Line | IC50, cell viability 72 h [1] [nM] | IC50, cell viability 72 h [2] [nM] | IC50, cell viability 72 h [3] [nM] | IC50, cell viability 72 h [4] [nM] | IC50, cell viability 72 h [5] [nM] | IC50, cell viability 72 h [6] [nM] | IC50, cell viability 72 h [7] [nM] | IC50, cell viability 72 h [8] [nM] | IC50, cell viability 72 h [9] [nM] | IC50, cell viability 72 h [10] [nM] | IC50, cell viability 72 h ([11]; max 10 µM) [nM] | IC50, cell viability 72 h [12] [nM] | IC50, cell viability 72 h [13] [nM] | IC50, cell viability 72 h [14] [nM] | IC50, cell viability 72 h [15] [nM] | IC50, cell viability 72 h [16] [nM] | IC50, cell viability 72 h [17] [nM] | IC50, cell viability 72 h [18] [nM] | IC50, cell viability 72 h [19] [nM] | IC50, cell viability 72 h [20] [nM] | IC50, cell viability 72 h [21] [nM] | IC50, cell viability 72 h [22] [nM] | IC50, cell viability 72 h [23] [nM] | IC50, cell viability 72 h [24] [nM] | IC50, cell viability 72 h [25] [nM] | IC50, cell viability 72 h [26] [nM] | IC50, cell viability 72 h [27] [nM] | IC50, cell viability 72 h ([11]; max 3 µM) [nM] |
| --- | --- | --- | --- | --- | --- | --- | --- | --- | --- | --- | --- | --- | --- | --- | --- | --- | --- | --- | --- | --- | --- | --- | --- | --- | --- | --- | --- | --- |
| HC-1 (Other Blood Carcinomas) | 4320 | > 3000 | 1680 | > 10000 | > 10000 | 6.96 | > 10000 | 4.53 | > 10000 | > 1000 | > 10000 | > 300 | 752 | > 1000 | 793 | 151 | 884 | 2640 | > 10000 | 9650 | > 1000 | > 1 | > 3000 | > 1000 | 187 | > 10000 | 858 | – |
| BT-20 (Breast Carcinoma) | > 10000 | > 3000 | > 2000 | > 10000 | > 10000 | 319 | 1210 | 57.7 | > 10000 | 202 | > 10000 | > 300 | 9860 | > 1000 | > 1000 | > 1000 | > 1000 | 297 | > 10000 | > 10000 | > 1000 | > 1 | > 3000 | > 1000 | 1440 | > 10000 | > 1000 | – |
| NH-12 (Neuroblastoma) | 2370 | > 3000 | > 2000 | > 10000 | > 10000 | 17.3 | > 10000 | 4.09 | > 10000 | 105 | > 10000 | > 300 | 68.8 | > 1000 | 79.3 | 157 | 509 | 1250 | > 10000 | > 10000 | > 1000 | > 1 | > 3000 | 576 | – | 3020 | 625 | – |
| IMR-5 (Neuroblastoma) | 2190 | > 3000 | > 2000 | > 10000 | > 10000 | 13.6 | > 10000 | 1.9 | > 10000 | > 1000 | > 10000 | > 300 | 18.3 | 107 | 546 | 64.9 | 18.2 | > 10000 | > 10000 | 6630 | > 1000 | > 1 | > 3000 | > 1000 | 498 | 2210 | 69.6 | – |
| RPMI-7951 (Melanoma) | 2250 | 2730 | 130 | > 10000 | > 10000 | 19.4 | 3380 | 15.8 | > 10000 | 136 | > 10000 | > 300 | 2140 | 488 | > 1000 | 173 | > 1000 | 2350 | > 10000 | > 10000 | > 1000 | > 1 | > 3000 | > 1000 | 489 | 5750 | 630 | – |
| LOU-NH91 (Squamous Cell Lung Carcinoma) | > 10000 | > 3000 | 657 | > 10000 | > 10000 | > 1000 | > 10000 | 17.1 | > 10000 | > 1000 | > 10000 | > 300 | > 10000 | > 1000 | > 1000 | 542 | > 1000 | 5870 | > 10000 | > 10000 | > 1000 | > 1 | > 3000 | > 1000 | 1350 | > 10000 | 239 | – |
| KLE (Endometrial Carcinoma) | > 10000 | > 3000 | 186 | > 10000 | > 10000 | > 1000 | > 10000 | > 300 | > 10000 | > 1000 | > 10000 | > 300 | 9070 | > 1000 | > 1000 | > 1000 | > 1000 | 2430 | > 10000 | > 10000 | > 1000 | > 1 | > 3000 | > 1000 | 1800 | > 10000 | 315 | – |
| KP-2 (Pancreatic Carcinoma) | > 10000 | > 3000 | > 2000 | > 10000 | 8020 | 867 | > 10000 | > 300 | > 10000 | 778 | > 10000 | > 300 | > 10000 | > 1000 | 238 | > 1000 | > 1000 | > 10000 | > 10000 | > 10000 | > 1000 | > 1 | > 3000 | > 1000 | > 3000 | > 10000 | > 1000 | – |
| EBC-1 (Squamous Cell Lung Carcinoma) | > 10000 | > 3000 | > 2000 | > 10000 | 1100 | 596 | > 10000 | 3.58 | > 10000 | 23.9 | > 10000 | > 300 | > 10000 | > 1000 | 585 | > 1000 | > 1000 | 5250 | > 10000 | > 10000 | 4.07 | > 1 | > 3000 | > 1000 | 2940 | 59 | 80.5 | – |
| U-87-MG (Glioblastoma) | > 10000 | 2450 | > 2000 | > 10000 | > 10000 | > 1000 | > 10000 | 40.5 | > 10000 | > 1000 | – | > 300 | > 10000 | > 1000 | > 1000 | – | > 1000 | 2450 | > 10000 | > 10000 | > 1000 | – | > 3000 | > 1000 | > 3000 | > 10000 | > 1000 | > 3000 |
